Measured values as given in patent US11505547B2, “Compounds” (STEP PHARMA S.A.S., priority 2017, dated 2022).

Target: T1, human CTPS1 (Homo sapiens, UniProt P17812)
T1 construct: purchased Proteros biostructures GmbH
T1 sequence (P17812 1-591): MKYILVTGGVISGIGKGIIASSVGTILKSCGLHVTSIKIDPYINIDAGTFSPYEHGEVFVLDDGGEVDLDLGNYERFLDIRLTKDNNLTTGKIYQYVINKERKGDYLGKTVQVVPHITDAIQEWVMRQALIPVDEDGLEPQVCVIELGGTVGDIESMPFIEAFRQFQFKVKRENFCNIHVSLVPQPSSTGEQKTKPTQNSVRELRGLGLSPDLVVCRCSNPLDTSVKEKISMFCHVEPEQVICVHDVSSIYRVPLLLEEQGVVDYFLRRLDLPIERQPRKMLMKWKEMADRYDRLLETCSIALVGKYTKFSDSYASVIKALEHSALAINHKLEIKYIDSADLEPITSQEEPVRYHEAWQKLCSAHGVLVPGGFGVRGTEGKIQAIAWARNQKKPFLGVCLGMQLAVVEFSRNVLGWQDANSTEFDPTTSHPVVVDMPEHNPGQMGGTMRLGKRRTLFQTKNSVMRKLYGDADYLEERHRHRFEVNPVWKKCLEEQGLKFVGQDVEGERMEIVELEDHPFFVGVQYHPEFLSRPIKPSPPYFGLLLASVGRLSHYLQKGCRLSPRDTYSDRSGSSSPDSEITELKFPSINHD
Experiment: Human CTPS1 enzyme inhibition, ADP-Glo Max assay
Format: biochemical
Settings: human full length CTPS1, read-out: CTPS1 (Human CTPS1 Enzyme Inhibition data grouped by potency range, IC50)
Procedure: Biological Example 1—Human CTPS1 Enzyme Inhibition
The enzyme inhibitory activities of compounds invented against the target of interest were determined using the ADP-Glo™ Max assay (Promega, UK). Assays for human CTPS1 were performed in 1× assay buffer containing 50 mM Tris, 10 mM MgCl2, 0.01% Tween-20, pH to 8.0 accordingly. Finally, immediately before use, L-cysteine was added to the 1× assay buffer to a final concentration of 2 mM. All reagents are from Sigma-Aldrich unless specified otherwise. Human full length active C-terminal FLAG-Hiss-tag CTPS1 (UniProtKB-P17812, CTPS[1-591]-[…]) was obtained from Proteros biostructures GmbH.
3× human CTPS1 protein was prepared in 1× assay buffer to the final working protein concentration required for the reaction. A 2 uL volume per well of 3× human CTPS1 protein was mixed with 2 uL per well of 3× test compound (compound prepared in 1× assay buffer to an appropriate final 3× compound concentration respective to the concentration response curve designed for the compounds under test) for 10 minutes at 25° C. The enzymatic reaction was then initiated by addition of a 2 uL per well volume of a pre-mixed substrate mix (UltraPure ATP from ADP-Glo™ Max kit (0.31 mM), GTP (0.034 mM), UTP (0.48 mM) and L-glutamine (0.186 mM)) and the mixture was incubated for an appropriate amount of time within the determined linear phase of the reaction at 25° C. under sealed plate conditions with constant agitation at 500 revolutions per minute (rpm). ADP-GIo™ Max reagent was added for 60 minutes (6 uL per well) and subsequently ADP-Glo™ Max development reagent was added for 60 minutes (12 uL per well) prior to signal detection in a microplate reader (EnVision® Multilabel Reader, Perkin Elmer). Following each reagent addition over the course of the assay, assay plates were pulse centrifuged for 30 seconds at 500 rpm.
In all cases, the enzyme converts ATP to ADP and the ADP-Glo™ Max reagent subsequently depletes any remaining endogenous ATP in the reaction system. The ADP-Glo™ Max detection reagent converts the ADP that has been enzymatically produced back into ATP and using ATP as a substrate together with luciferin for the enzyme luciferase, light is generated which produces a detectable luminescence. […] The percentage inhibition produced by each concentration of compound was calculated using the equation shown below: […]
Percentage inhibition was then plotted against compound concentration, and the 50% inhibitory concentration (IC50) was determined from the resultant concentration-response curve.

Row | IC50 | Structure (SMILES)
1 | 100 to 1000 nM | CCC(CC)(NC(=O)c1ccc(-c2cncc(F)c2)cc1)c1csc(NS(=O)(=O)C2CC2)n1 [Example R16, N-(3-(2-(cyclopropanesulfonamido)thiazol-4-yl)pentan-3-yl)-4-(5-fluoropyridin-3-yl)benzamide]
2 | 100 to 1000 nM | CCC(CC)(NC(=O)c1ccc(-c2cncc(C)c2)cc1)c1csc(NS(=O)(=O)C2CC2)n1 [Example R17, N-(3-(2-(cyclopropanesulfonamido)thiazol-4-yl)pentan-3-yl)-4-(5-methylpyridin-3-yl)benzamide]
3 | < 100 nM | CCC(CC)(NC(=O)c1ccc(-c2cncc(C(F)(F)F)n2)cc1)c1csc(NS(=O)(=O)C2CC2)n1 [Example R19, N-(3-(2-(cyclopropanesulfonamido)thiazol-4-yl)pentan-3-yl)-4-(6-(trifluoromethyl)pyrazin-2-yl)benzamide]
4 | 100 to 1000 nM | CC(C)(NC(=O)c1ccc(-c2cncc(C(F)(F)F)n2)cn1)c1csc(NS(=O)(=O)C2CC2)n1 [Example R24, N-(2-(2-(cyclopropanesulfonamido)thiazol-4-yl)propan-2-yl)-5-(6-(trifluoromethyl)pyrazin-2-yl)picolinamide]
5 | < 100 nM | CC(C)(NC(=O)c1ccc(-c2cncc(Cl)c2)cc1)c1csc(NS(=O)(=O)C2CC2)n1 [Example R28]
6 | < 100 nM | CC(C)(NC(=O)c1ccc(-c2cncc(C(F)(F)F)c2)cc1F)c1csc(NS(=O)(=O)C2CC2)n1 [Example R29]
7 | 100 to 1000 nM | CC(C)(NC(=O)c1ccc(-c2cncc(F)c2)cc1F)c1csc(NS(=O)(=O)C2CC2)n1 [Example R31]
8 | 100 to 1000 nM | COc1cc(-c2cncc(C(F)(F)F)c2)ccc1C(=O)NC(C)(C)c1csc(NS(=O)(=O)C2CC2)n1 [Example R32]
9 | 1000 to 10000 nM | Cc1ncccc1-c1ccc(C(=O)NC(C)(C)c2csc(NS(=O)(=O)C3CC3)n2)cc1 [Example R33]
10 | 1000 to 10000 nM | CC(=O)c1cncc(-c2ccc(C(=O)NC(C)(C)c3csc(NS(=O)(=O)C4CC4)n3)cc2)c1 [Example R34]
11 | < 100 nM | CC(C)(NC(=O)c1ccc(-c2cncc(C(F)(F)F)c2)cc1)c1csc(NS(=O)(=O)C2CC2)n1 [Example R35, N-(2-(2-(cyclopropanesulfonamido)thiazol-4-yl)propan-2-yl)-4-(5-(trifluoromethyl)pyridin-3-yl)benzamide]
12 | 100 to 1000 nM | CC(C)(NC(=O)c1ccc(-c2cncc(F)c2)cc1)c1csc(NS(=O)(=O)C2CC2)n1 [Example R36, N-(2-(2-(cyclopropanesulfonamido)thiazol-4-yl)propan-2-yl)-4-(5-fluoropyridin-3-yl)benzamide]
13 | < 100 nM | Cc1cncc(-c2ccc(C(=O)NC(C)(C)c3csc(NS(=O)(=O)C4CC4)n3)cc2)c1 [Example R37, N-(2-(2-(cyclopropanesulfonamido)thiazol-4-yl)propan-2-yl)-4-(5-methylpyridin-3-yl)benzamide]
14 | 100 to 1000 nM | COc1cncc(-c2ccc(C(=O)NC(C)(C)c3csc(NS(=O)(=O)C4CC4)n3)cc2)c1 [Example R38, N-(2-(2-(cyclopropanesuIfonamido)thiazol-4-yl)propan-2-yl)-4-(5-methoxypyridin-3-yl)benzamide]
15 | 100 to 1000 nM | CC(C)(NC(=O)c1ccc(-c2cccnc2)cc1)c1csc(NS(=O)(=O)C2CC2)n1 [Example R39, N-(2-(2-(cyclopropanesulfonamido)thiazol-4-yl)propan-2-yl)-4-(pyridin-3-yl)benzamide]
16 | 100 to 1000 nM | CC(C)(NC(=O)c1ccc(-c2cccc(C(F)(F)F)c2)cc1)c1csc(NS(=O)(=O)C2CC2)n1 [Example R40, N-(2-(2-(cyclopropanesulfonamido)thiazol-4-yl)propan-2-yl)-3′-(trifluoromethyl)-[1,1′-biphenyl]-4-carboxamide]
17 | < 100 nM | CC(C)(NC(=O)c1ccc(-c2cncc(C(F)(F)F)n2)cc1F)c1csc(NS(=O)(=O)C2CC2)n1 [Example R42, N-(2-(2-(cyclopropanesuIfonamido)thiazol-4-yl)propan-2-yl)-2-fluoro-4-(6-(trifluoromethyl)pyrazin-2-yl)benzamide]
18 | 100 to 1000 nM | Cc1cc(-c2cncc(C(F)(F)F)n2)ccc1C(=O)NC(C)(C)c1csc(NS(=O)(=O)C2CC2)n1 [Example R45, N-(2-(2-(cyclopropanesulfonamido)thiazol-4-yl)propan-2-yl)-2-methyl-4-(6-(trifluoromethyl)pyrazin-2-yl)benzamide]

Continued, molecule first:

Row | Structure (SMILES) | IC50
19 | CCC(CC)(NC(=O)c1ccc(-c2cccnc2)cc1)c1csc(NS(=O)(=O)C2CC2)n1 [Example R18, N-(3-(2-(cyclopropanesulfonamido)thiazol-4-yl)pentan-3-yl)-4-(pyridin-3-yl)benzamide] | 100 to 1000 nM
20 | CCC(CC)(NC(=O)c1ccc(-c2cncc(Cl)n2)cc1)c1csc(NS(=O)(=O)C2CC2)n1 [Example R20, 4-(6-chloropyrazin-2-yl)-N-(3-(2-(cyclopropanesulfonamido)thiazol-4-yl)pentan-3-yl)benzamide] | < 100 nM
21 | CCC(CC)(NC(=O)c1ccc(-c2cncc(C)n2)cc1)c1csc(NS(=O)(=O)C2CC2)n1 [Example R21, N-(3-(2-(cyclopropanesulfonamido)thiazol-4-yl)pentan-3-yl)-4-(6-methylpyrazin-2-yl)benzamide] | < 100 nM
22 | CCC(CC)(NC(=O)c1ccc(-c2cnccn2)cc1)c1csc(NS(=O)(=O)C2CC2)n1 [Example R22, N-(3-(2-(cyclopropanesulfonamido)thiazol-4-yl)pentan-3-yl)-4-(pyrazin-2-yl)benzamide] | 100 to 1000 nM
23 | CCOc1cncc(-c2cnc(C(=O)NC(C)(C)c3csc(NS(=O)(=O)C4CC4)n3)c(F)c2)n1 [Example R23, N-(2-(2-(cyclopropanesuIfonamido)thiazol-4-yl)propan-2-yl)-5-(6-ethoxypyrazin-2-yl)-3-fluoropicolinamide] | 100 to 1000 nM
24 | CC(C)(NC(=O)c1ccc(-c2cncc(Cl)n2)cn1)c1csc(NS(=O)(=O)C2CC2)n1 [Example R25, 5-(6-chloropyrazin-2-yl)-N-(2-(2-(cyclopropanesulfonamido)thiazol-4-yl)propan-2-yl)picolinamide] | 100 to 1000 nM
25 | CCOc1cncc(-c2ccc(C(=O)NC(C)(C)c3csc(NS(=O)(=O)C4CC4)n3)nc2)n1 [Example R26, N-(2-(2-(cyclopropanesulfonamido)thiazol-4-yl)propan-2-yl)-5-(6-ethoxypyrazin-2-yl)picolinamide] | 100 to 1000 nM
26 | CC(C)(NC(=O)c1ccc(-c2ccccn2)nc1)c1csc(NS(=O)(=O)C2CC2)n1 [Example R27, N-(2-(2-(cyclopropanesuIfonamido)thiazol-4-yl)propan-2-yl)-[2,2′-bipyridine]-5-carboxamide] | 10000 to 21000 nM
27 | CC(C)(NC(=O)c1ccc(-c2cncc(Cl)c2)cc1F)c1csc(NS(=O)(=O)C2CC2)n1 [Example R30] | 100 to 1000 nM
28 | CCc1cncc(-c2ccc(C(=O)NC(C)(C)c3csc(NS(=O)(=O)C4CC4)n3)c(F)c2)n1 [Example R41, N-(2-(2-(cyclopropanesuIfonamido)thiazol-4-yl)propan-2-yl)-4-(6-ethylpyrazin-2-yl)-2-fluorobenzamide] | 100 to 1000 nM
29 | CC(C)Oc1cncc(-c2ccc(C(=O)NC(C)(C)c3csc(NS(=O)(=O)C4CC4)n3)c(F)c2)n1 [Example R43, N-(2-(2-(cyclopropanesulfonamido)thiazol-4-yl)propan-2-yl)-2-fluoro-4-(6-isopropoxypyrazin-2-yl)benzamide] | < 100 nM
30 | CC(C)(NC(=O)c1ccc(-c2cncc(OCC(F)(F)F)n2)cc1F)c1csc(NS(=O)(=O)C2CC2)n1 [Example R44, N-(2-(2-(cyclopropanesuIfonamido)thiazol-4-yl)propan-2-yl)-2-fluoro-4-(6-(2,2,2-trifluoroethoxy)pyrazin-2-yl)benzamide] | 100 to 1000 nM
